Measurements: patent EP2705856A1, “Compounds for the treatment of neurodegenerative disorders” (Deutsches Zentrum für Neurodegenerative Erkrankungen e.V., priority 2012, dated 2014)
Like-named read-outs stand apart in the source and are kept apart here.

Tests used:
hFKBP12 = hFKBP12 (Homo sapiens, UniProt P62942); test: Protease-coupled PPIase assay, FKBP12; assay type: biochemical; details: Example 3; read-out: IC50 value, inhibition of PPlase activity of FKBP12
Procedure: The PPlase activity of hFKBP12 and hCypA was determined by using the protease-coupled PPlase assay as described by Fischer, H. Bang, B. Ludwig, K. Mann, J. Hacker, Mol. Microbiol. 1992, 6, 1375-1383. […] Then reaction was started by addition of 100 µg/mL of the isomer specific protease chymotrypsin, and the release of 4-nitroaniline was monitored by measuring the absorbance at 390 nm. […] Since tested PPlases vary in there catalytic efficiencies, different substrates has to be used to ensure equal rate constants of catalyzed cis/trans isomerization (Table 1). […] Table 1. Substrates for the respective PPlases

hCypA = hCypA (Homo sapiens, UniProt P62937); test: Protease-coupled PPIase assay, CypA; assay type: biochemical
Procedure: The PPlase activity of hFKBP12 and hCypA was determined by using the protease-coupled PPlase assay as described by Fischer, H. Bang, B. Ludwig, K. Mann, J. Hacker, Mol. Microbiol. 1992, 6, 1375-1383. To study the effect of compounds 7-10 on PPlase activity, 100 nM of each hFKBP and 5 nM of each hCyp, respectively and 40 µM peptide substrate were preincubated in the presence or absence of various inhibitor concentrations for 6 min at 10 °C in 35mM HEPES/NaCl buffer (pH 7.5). Then reaction was started by addition of 100 µg/mL of the isomer specific protease chymotrypsin, and the release of 4-nitroaniline was monitored by measuring the absorbance at 390 nm. To achieve better comparability of compounds 7-10 effects on PPlase activity, the concentrations of FKBP and Cyp were kept constant at 100 nM and 5 nM, respectively. Since tested PPlases vary in there catalytic efficiencies, different substrates has to be used to ensure equal rate constants of catalyzed cis/trans isomerization (Table 1). […] Table 1. Substrates for the respective PPlases

hCypA, sequence (P62937 whole entry): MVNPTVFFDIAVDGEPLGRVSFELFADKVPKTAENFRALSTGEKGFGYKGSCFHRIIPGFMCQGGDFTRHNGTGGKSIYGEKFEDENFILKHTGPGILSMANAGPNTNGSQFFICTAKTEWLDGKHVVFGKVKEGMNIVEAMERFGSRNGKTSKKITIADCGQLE
hFKBP12, sequence (P62942 whole entry): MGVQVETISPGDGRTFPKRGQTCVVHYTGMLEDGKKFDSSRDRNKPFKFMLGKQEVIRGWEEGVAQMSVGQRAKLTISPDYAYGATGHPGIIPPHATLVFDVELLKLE

Row | SMILES | IC50 (hFKBP12) | IC50 (hCypA; read-out: /C50-values, inhibition of PPlase activity of hCypA, Example 1, Figure 1: hCypA 5 nM, substrate suc-Ala-Ala-Pro-Phe-pNA) | IC50 (hCypA; read-out: IC50 value, inhibition of CypA, Example 3)
1 | C[C@@H]1C[C@@H]([C@H](O)CC2CC(=O)N(CC(=O)N(C)C)C(=O)C2)C(=O)[C@@H](C)C1 [DM-CHX, N-(N,N-Dimethylcarboxamidomethyl)cycloheximid] | 36.9 ± 17.1 nM |  | 
2 | C/C=C/C[C@@H](C)[C@@H](O)[C@H]1C(=O)N[C@@H](CC)C(=O)N(C)CC(=O)N(C)[C@@H](CC(C)C)C(=O)N[C@@H](C(C)C)C(=O)N(C)[C@@H](CC(C)C)C(=O)N[C@@H](C)C(=O)N[C@H](CO)C(=O)N(C)[C@@H](CC(C)C)C(=O)N(C)[C@@H](CC(C)C)C(=O)N(C)[C@@H](C(C)C)C(=O)N1C [[D-Ser^8]-CsA] |  | 8.3 ± 1.4 nM | 1.5 ± 0.4 nM
